Test results: patent publication US6072051A, “Nucleoside derivatives and process for preparing the same” (priority 1995, dated 2000)
Like-named read-outs stand apart in the source and are kept apart here.

What was measured:
[1] = tested on: HBV; conditions: Proc. Natl. Acad. Sci. USA, 88, 8495 (1991); Biochem. Pharm., 47, 171 (1994); cited from earlier work
[2] = tested on: HBV; assay: Test of Anti-HBV Activity in Hep G2 2.2.15 cell lines; assay type: cell-based; conditions: for EC50 / EC90: Hepatitis B virus, HepG2 2.2.15
Method: (§1) The anti-HBV activity of the compounds according to the present invention, was tested in Hep G2 2.2.15 cell lines, as using 2',3'-dideoxycytidine as a control compound.

[3] = Toxicity (CC50) in Hep G2 2.2.15 cell lines, anti-HBV test; assay type: cell-based; conditions: human, hep g2 2.2.15 cells
Method: as §1

[4] = Hep G2 2.2.15 cell lines, anti-HBV activity, read-out: EC50
[5] = Hep G2 2.2.15 cell lines, anti-HBV activity, read-out: EC90

Row | Compound | anti-HBV activity (reported) [1] | EC50 [2, 4] [µM] | EC90 [2, 5] [µM] | Sl (CC50 /EC90) ([2]; human, hep g2 2.2.15 cells) | CC50 [3] [µM] | EC50 [2] [µM] | EC90 [2] [µM] | Sl (CC50 /EC90) ([2]; ratio CC50 /EC90, Hep G2 2.2.15 cell lines)
1 | Nc1nc(=O)n([C@H]2CS[C@@H](CO)O2)cc1F [5-fluoro-2', 3'-dideoxy-3'-thiacytidine] | have anti-HBV activity | – | – | – | – | – | – | –
2 | Nc1nc(=O)n([C@@H]2C[C@](F)(CO)CO2)cc1F (relative stereo) [Compound 9, cis-2-(5-Fluorocytosin-1-yl)-4-fluoro-4-hydroxymethyltetrahydrofuran] | – | 0.8 | 0.7 | 319 | 2230 | – | – | –
3 | Nc1ccn([C@H]2CS[C@@H](CO)O2)c(=O)n1 [2',3'-dideoxy-3'-thiacytidine] | have anti-HBV activity | – | – | – | – | – | – | –
4 | O=c1[nH]c(=O)n([C@H]2C[C@](F)(CO)CO2)cc1I (relative stereo) [Compound 16, trans-2-(5-iodouracil-1-yl)-4-fluoro-4-hydroxymethyltetrahydrofuran] | – | 0.8 | 5.3 | 85 | 451 | – | – | –
5 | Cc1cn([C@@H]2C[C@](F)(CO)CO2)c(=O)[nH]c1=O (relative stereo) [Compound 5, cis-2-(Thymin-1-yl)-4-fluoro-4-hydroxymethyltetrahydrofuran] | – | 0.1 | 0.8 | 590 | 472 | – | – | –
6 | Nc1ccn([C@H]2C[C@](F)(CO)CO2)c(=O)n1 (relative stereo) [Compound 8, trans-2-(Cytosin-1-yl)-4-fluoro-4-hydroxymethyltetrahydrofuran] | – | 0.08 | 0.522 | 2,874 | 1500 | – | – | –
7 | O=c1[nH]c(=O)n([C@@H]2C[C@](F)(CO)CO2)cc1I (relative stereo) [Compound 15, cis-2-(5-Iodouracil-1-yl)-4-fluoro-4-hydroxymethyltetrahydrofuran] | – | 0.6 | 4.4 | 501 | 2200 | – | – | –
8 | Nc1ccn([C@@H]2CC[C@H](CO)O2)c(=O)n1 [2', 3'-dideoxy-β-L-cytidine] | have anti-HBV activity | – | – | – | – | – | – | –
9 | Cc1cn([C@H]2C[C@](F)(CO)CO2)c(=O)[nH]c1=O (relative stereo) [Compound 6, trans-2-(Thymin-1-yl)-4-fluoro-4-hydroxymethyltetrahydrofuran] | – | 0.2 | 1 | 2,321 | 2320 | – | – | –
10 | Nc1ccn([C@@H]2C[C@](F)(CO)CO2)c(=O)n1 (relative stereo) [Compound 7, cis-2-(Cytosin-1-yl)-4-fluoro-4-hydroxymethyltetrahydrofuran] | – | 0.011 | 0.143 | 10,811 | 1550 | – | – | –
11 | Nc1nc(=O)n([C@@H]2CC[C@H](CO)O2)cc1F [2', 3'-dideoxy-β-L-5-fluorocytidine] | have anti-HBV activity | – | – | – | – | – | – | –
12 | Nc1nc(=O)n([C@H]2C[C@](F)(CO)CO2)cc1F (relative stereo) [Compound 10, trans-2-(5-Fluorocytosin-1-yl)-4-fluoro-4-hydroxymethyltetrahydrofuran] | – | 0.061 | 0.835 | 1,444 | 955 | – | – | –
13 | Nc1ccn([C@H]2CC[C@@H](CO)O2)c(=O)n1 [Control compound, 2',3'-dideoxycytidine, reference compound] | – | – | – | – | 1080 | 7.57 | 35 | 30.811
